ChEMBL document CHEMBL1130604, “Synthesis and biological activity of novel thiazolidinediones” (1998)
Activity calls are given as the source filed them. The rule behind the calls is not given here.

What was measured:
Mus musculus [1] = assay: Compound was tested for antidiabetic activity by measuring percentage reduction in plasma glucose at a dose of 30 mg/kg; type: functional
Mus musculus [2] = assay: Compound was tested for antidiabetic activity by measuring percentage reduction in triglycerides at a dose of 30 mg/kg; NE=No effect; type: functional, organism-based; set-up: dose 30 mg/kg
Rattus norvegicus [3] = assay: Compound was tested for antiinflammatory activity by measuring percentage reduction in inflammation at a dose of 100 mg/kg in rats; type: functional
Mus musculus [4] = assay: Compound was tested for antidiabetic activity by measuring percentage reduction in plasma glucose at a dose of 30 mg/kg; NE=No effect; type: functional, organism-based; set-up: dose 30 mg/kg
Mus musculus [5] = assay: Compound was tested for antidiabetic activity by measuring percentage reduction in triglycerides at a dose of 30 mg/kg; type: functional
Rattus norvegicus [6] = assay: Compound was tested for antiinflammatory activity by measuring percentage reduction in inflammation at a dose of 100 mg/kg in rats; NE=No effect; type: functional, organism-based; set-up: dose 100 mg/kg

SMILES | Reduction (Mus musculus [1]) [%] | Reduction (Mus musculus [2]) | Reduction (Rattus norvegicus [3]) [%] | Reduction (Mus musculus [4]) | Reduction (Mus musculus [5]) [%] | Reduction (Rattus norvegicus [6])
C/C(=C1\SC(=O)NC1=O)c1ccco1 | 16 | inactive | 12 |  |  | 
COc1ccc2cc(/C(CC(C)=O)=C3\SC(=O)NC3=O)ccc2c1 | 16 | inactive | 25 |  |  | 
COc1ccc2cc(/C(CC(C)=O)=C3/SC(=O)NC3=O)ccc2c1 |  | inactive | 7 | inactive |  | 
COc1ccc2cc(CCC(C)C3SC(=O)NC3=O)ccc2c1 (stereo unspecified) | 8 |  | 17 |  | 44 | 
C/C(=C1/SC(=O)NC1=O)c1cccs1 |  |  |  | inactive | 18 | inactive
COc1ccc2cc(/C(C)=C3/SC(=O)NC3=O)ccc2c1 | 26 | inactive | 7 |  |  | 
C/C(CCc1ccc2cc(OCC3(C)CCc4c(C)c(O)c(C)c(C)c4O3)ccc2c1)=C1/SC(=O)NC1=O (stereo unspecified) |  | inactive | 12 | inactive |  | 
C/C(CCc1ccc2cc(O)ccc2c1)=C1\SC(=O)NC1=O | 20 | inactive |  |  |  | inactive
Cc1c(C)c2c(c(C)c1O)CCC(C)(COc1ccc(CC3SC(=O)NC3=O)cc1)O2 (stereo unspecified) [TROGLITAZONE] | 16 |  | 3 |  | 50 | 
COc1ccc2cc(CCC(C)=O)ccc2c1 [NABUMETONE] |  | inactive | 30 | inactive |  | 
O=C1NC(=O)C(Cc2ccc3cc(OCc4ccccc4F)ccc3c2)S1 (stereo unspecified) [NETOGLITAZONE] | 60 |  | 18 |  | 72 | 
COc1ccc2cc(CC/C(C)=C3/SC(=O)NC3=O)ccc2c1 | 16 |  | 10 |  | 50 | 
